US11345675B2, “Compound, anti-allergy drug, and mediator release inhibitor” (LAIMU CORPORATION, priority 2018, dated 2022)
“Also recorded” adds a separate entry of the source.

How the values were obtained:
[1] = test system: rat basophilic leukemia cells RBL-2H3; test: Degranulation inhibiting test (β-hexosaminidase release induced by antigen-antibody reaction); assay type: cell-based; details: RBL-2H3 cells, anti-DNP-IgE/DNP-HSA stimulation; compounds 1, 2 and 6-sPalm-AA-2G at 40, 60 or 80 μM, oxatomide 75 μM; FIG. 1
Description: In this Example, the compound 1 and the compound 2 were evaluated in terms of the effect thereof to inhibit degranulation to be induced by stimulation of an antigen-antibody reaction. Degranulation was quantified based on, as an index, β-hexosaminidase release from rat basophilic leukemia cells RBL-2H3. Specifically, β-hexosaminidase is an enzyme released through degranulation of mast cells or basocytes, and through enzymatic reaction with a substrate, p-nitrophenyl-2-acetamide-2-deoxy-β-glucopyranoside, this increases the absorbance at 405 nm of the reaction liquid. Here, the degranulation inhibiting effect was evaluated from the absorbance change as an index of β-hexosaminidase release amount (degree of degranulation).
The compound 1 and the compound 2 were individually dissolved in a 0.25% dimethyl sulfoxide-containing MT buffer at a concentration of 40 μM, 60 μM or 80 μM to prepare solutions to be evaluation samples. On the other hand, as comparative samples, 6-sPalm-AA-2G was dissolved in a 0.25% dimethyl sulfoxide-containing MT buffer at a concentration of 40 μM, 60 μM or 80 μM to prepare solutions, and oxatomide was dissolved in a 0.25% dimethyl sulfoxide-containing MT buffer at a concentration of 75 μM to prepare a solution. […]

[2] = test system: PCA (passive cutaneous anaphylaxis) reaction; test: PCA reaction inhibition test (Evans blue dye leakage in auricle); assay type: in vivo; details: applied to auricle of ICR male mice, 90 nmol/auricle (6-sPalm-AA-2G 150 nmol/auricle), 3.5 hours before DNP-HSA-Evans blue i.v.; FIG. 2
Description: In this Example, the anti-allergy activity of the compound 1 and the compound 2 was evaluated based on, as an index, the inhibiting effect thereof against PCA (passive cutaneous anaphylaxis) reaction. PCA reaction is a series of cell reaction of an allergy reaction including immobilization of mast cells via an Fc part of immunoglobulin, antigen-antibody reaction on the cells, release of inflammatory mediator from the mast cells through the reaction and promotion of vascular permeability. Here, after an anti-DNP-IgE antibody solution has been subcutaneously administered to a test body, a solution containing a 2,4-dinitrophenyl group (DNP)-labeled human serum albumin (HSA) and a dye (Evans blue) (DNP-HSA-Evans blue solution) is intravenously administered, and the vascular permeability increase according to the antigen-antibody reaction is quantified by the absorbance increase owing to dye leakage from the blood vessel to the tissue to thereby evaluate the PCA reaction inhibiting effect. […]
An aqueous 1 N potassium hydroxide solution (0.5 mL) was added to the thus-cut auricle, and shaken at 37° C. overnight. After shaking, a mixed solution (3.25 mL) of aqueous 0.34 M phosphoric acid solution/acetone=13/5 (v/v) was added, and centrifuged by 700×g at 4° C. for 20 minutes, and the absorbance at 620 nm of the supernatant was measured. […]

CCCCCCCCCCCCCCCC(=O)OC[C@H](O)[C@H]1OC(=O)C(OC)=C1O [compound 1]
β-hexosaminidase release inhibition ratio (degranulation inhibition ratio) [1]: greatly higher than the degranulation inhibition ratio of the system added with 6-sPalm-AA-2G, and surpasses the degranulation inhibition ratio of the system added with oxatomide
dye leakage (relative absorbance at 620 nm, control = 100) [2]: lower than the dye leakage in the system with 6-sPalm-AA-2G

CCCCCCCCCCCCCCCC(=O)NC[C@H](O)[C@H]1OC(=O)C(OC)=C1O [compound 2]
β-hexosaminidase release inhibition ratio (degranulation inhibition ratio) [1]: greatly higher than the degranulation inhibition ratio of the system added with 6-sPalm-AA-2G, and surpasses the degranulation inhibition ratio of the system added with oxatomide; also recorded: tends to have a higher degranulation inhibiting effect than the compound 1
dye leakage (relative absorbance at 620 nm, control = 100) [2]: lower than the dye leakage in the system with 6-sPalm-AA-2G; also recorded: suppressed more than that in the system where oxatomide had been applied; also recorded: tends to have a higher anti-allergy activity than the compound 1
